According to the NIST ThermoML archive (doi:10.1016/j.fluid.2009.06.018):

Legend:
[1] = excess molar enthalpy (molar enthalpy of mixing); xn = mol fraction of the nth substance listed; details: 298.15 K, 101 kPa, Liquid, Flow calorimetry
[2] = xn = mol fraction of the nth substance listed; details: 298.15 K, 101 kPa, Liquid, Vibrating tube method
[3] = 298.15 K; 101.33 kPa; Liquid; Vibrating tube method
[4] = refractive index (Na D-line) (dimensionless); details: 298.15 K; 101.33 kPa; Liquid; Standard Abbe refractometry

COCCOCCOCCO [2-[2-(2-methoxyethoxy)ethoxy]ethanol] + CC(Cl)CCl
Details	excess molar enthalpy [kcal/mol]	mass density [kg/m3]
[1], x2 = 0.061	-0.0429	–
[1], x2 = 0.091	-0.0565	–
[1], x2 = 0.15	-0.0912	–
[1], x2 = 0.206	-0.119	–
[1], x2 = 0.26	-0.14	–
[1], x2 = 0.311	-0.1575	–
[1], x2 = 0.36	-0.1693	–
[1], x2 = 0.407	-0.1774	–
[1], x2 = 0.452	-0.1811	–
[1], x2 = 0.496	-0.1814	–
[1], x2 = 0.558	-0.1759	–
[1], x2 = 0.597	-0.1682	–
[1], x2 = 0.654	-0.1526	–
[1], x2 = 0.707	-0.133	–
[1], x2 = 0.757	-0.111	–
[1], x2 = 0.805	-0.0875	–
[1], x2 = 0.851	-0.0629	–
[1], x2 = 0.908	-0.0328	–
[1], x2 = 0.949	-0.0144	–
[2], x2 = 0.0554	–	1047.4
[2], x2 = 0.1	–	1050.82
[2], x2 = 0.1507	–	1054.88
[2], x2 = 0.1999	–	1058.91
[2], x2 = 0.2535	–	1063.43
[2], x2 = 0.2977	–	1067.32
[2], x2 = 0.3483	–	1071.88
[2], x2 = 0.401	–	1076.8
[2], x2 = 0.4512	–	1081.66
[2], x2 = 0.5013	–	1086.65
[2], x2 = 0.5522	–	1091.89
[2], x2 = 0.6013	–	1097.16
[2], x2 = 0.648	–	1102.3
[2], x2 = 0.7005	–	1108.34
[2], x2 = 0.7514	–	1114.4
[2], x2 = 0.7997	–	1120.38
[2], x2 = 0.8567	–	1127.98
[2], x2 = 0.8993	–	1133.84
[2], x2 = 0.9502	–	1141.27

CCCCOCCOCCO [3,6-dioxa-1-decanol]
Details	mass density [kg/m3]	refractive index
[3]	948.48	–
[4]	–	1.42998

CCCCOCCOCCO [3,6-dioxa-1-decanol] + CC(Cl)CCl
Details	excess molar enthalpy [kcal/mol]	mass density [kg/m3]
[1], x2 = 0.066	-0.039	–
[1], x2 = 0.098	-0.0499	–
[1], x2 = 0.161	-0.0736	–
[1], x2 = 0.191	-0.086	–
[1], x2 = 0.248	-0.0983	–
[1], x2 = 0.303	-0.107	–
[1], x2 = 0.355	-0.1121	–
[1], x2 = 0.404	-0.113	–
[1], x2 = 0.45	-0.1104	–
[1], x2 = 0.495	-0.105	–
[1], x2 = 0.558	-0.0936	–
[1], x2 = 0.598	-0.0852	–
[1], x2 = 0.654	-0.0686	–
[1], x2 = 0.707	-0.0514	–
[1], x2 = 0.757	-0.0343	–
[1], x2 = 0.803	-0.0186	–
[1], x2 = 0.847	-0.00454	–
[1], x2 = 0.902	0.00837	–
[1], x2 = 0.953	0.00985	–
[2], x2 = 0.052	–	954.88
[2], x2 = 0.1	–	961.07
[2], x2 = 0.155	–	968.38
[2], x2 = 0.1997	–	974.56
[2], x2 = 0.2496	–	981.76
[2], x2 = 0.3037	–	989.93
[2], x2 = 0.3497	–	997.2
[2], x2 = 0.4033	–	1006.02
[2], x2 = 0.4504	–	1014.14
[2], x2 = 0.4998	–	1023.03
[2], x2 = 0.5535	–	1033.23
[2], x2 = 0.6001	–	1042.57
[2], x2 = 0.6494	–	1052.96
[2], x2 = 0.7024	–	1064.78
[2], x2 = 0.7527	–	1076.67
[2], x2 = 0.8024	–	1089.22
[2], x2 = 0.8488	–	1101.75
[2], x2 = 0.901	–	1116.84
[2], x2 = 0.9479	–	1131.48

CCCCOCCOCCOCCO [triethylene glycol monobutyl ether]
Details	mass density [kg/m3]	refractive index
[3]	988.44	–
[4]	–	1.43973

CCCCOCCOCCOCCO [triethylene glycol monobutyl ether] + CC(Cl)CCl
Details	excess molar enthalpy [kcal/mol]	mass density [kg/m3]
[1], x2 = 0.079	-0.0579	–
[1], x2 = 0.117	-0.0778	–
[1], x2 = 0.154	-0.102	–
[1], x2 = 0.19	-0.121	–
[1], x2 = 0.256	-0.146	–
[1], x2 = 0.317	-0.167	–
[1], x2 = 0.346	-0.1746	–
[1], x2 = 0.401	-0.1859	–
[1], x2 = 0.452	-0.1912	–
[1], x2 = 0.5	-0.1913	–
[1], x2 = 0.545	-0.188	–
[1], x2 = 0.606	-0.1763	–
[1], x2 = 0.645	-0.1648	–
[1], x2 = 0.698	-0.145	–
[1], x2 = 0.746	-0.123	–
[1], x2 = 0.805	-0.0932	–
[1], x2 = 0.859	-0.0635	–
[1], x2 = 0.907	-0.0371	–
[1], x2 = 0.951	-0.0164	–
[2], x2 = 0.0919	–	996.32
[2], x2 = 0.1463	–	1001.35
[2], x2 = 0.2006	–	1006.67
[2], x2 = 0.2501	–	1011.79
[2], x2 = 0.3036	–	1017.68
[2], x2 = 0.3548	–	1023.63
[2], x2 = 0.4015	–	1029.38
[2], x2 = 0.4519	–	1035.95
[2], x2 = 0.5032	–	1043.04
[2], x2 = 0.5498	–	1049.9
[2], x2 = 0.6016	–	1058.03
[2], x2 = 0.6526	–	1066.61
[2], x2 = 0.701	–	1075.35
[2], x2 = 0.7502	–	1084.93
[2], x2 = 0.8009	–	1095.6
[2], x2 = 0.851	–	1107.21
[2], x2 = 0.9003	–	1119.7
[2], x2 = 0.9483	–	1133.01
